# Experimental data as given in US20220016048A1, “CANNABIDIOL-TYPE CANNABINOID COMPOUND” (GW Research Limited, priority 2018, published 2022).
# Legend:
# [1] = system: sub-chronic PCP-induced deficit in social behaviour in female Lister-Hooded rats; assay: social interaction test in sub-chronic PCP treated rats; format: in vivo, rat
# Experimental: The aim of the current study was to investigate the ability of CBD-C4 (3, 10 & 30 mg/kg IP; 60 min pre-treatment (ptt)) in comparison with risperidone (an atypical antipsychotic; 0.1 mg/kg IP; 60 min pre-treatment), to antagonise a sub-chronic PCP (scPCP; 2 mg/kg IP; twice daily for 7-days; 7 day wash out)-induced deficit in social behaviour in female Lister-Hooded rats.
# 180 female Lister Hooded rats were used for this experiment, of which 90 were used for the drug study and 90 weight-matched untreated conspecifics were used as the companion rat, and their behaviour was not scored.
# Rats were housed in groups of 5 under standard laboratory conditions under a 12-hr light: dark cycle, lights on at 0700 hr. Testing was carried out in the light phase. These studies were carried out in accordance with the Animals Scientific Procedures Act (UK, 1986).
# CBD-C4 was used at doses of (3, 10, 30 mg/kg, i.p.) and risperidone was used at a dose of 0.1 mg/kg, i.p.
# Rats were randomly assigned to two treatment groups and treated with vehicle, n=15 (distilled water, i.p.) or PCP, n=75 (2 mg/kg, i.p. twice daily for 7-days). This was followed by a 7-day wash out period before the rats were tested following acute treatment with CBD-C4, risperidone or vehicle.
# Risperidone (0.1 mg/kg) was dissolved in a minimum volume of acetic acid, made up to volume with distilled water and pH adjusted to 6 with 0.1M NaOH and administered via the i.p. route in a volume of 1 ml/kg, 60 min prior to testing.
# CBD-C4 (3, 10 & 30 mg/kg) was dissolved in 2:1:17 (Ethanol:Cremophor EL:Saline 0.9%). CBD-C4 was administered via the i.p. route in a volume of 5 ml/kg, 60 min prior to testing.
# The social interaction test was performed in an open-field comprising a square box made of Plexiglas (52×52×31 cm) placed 27 cm above the floor on a moveable trolley. The floor of the box was white with black gridlines forming 9 identical squares on it. All other walls were black. A video camera connected to a video recorder and monitor was positioned above the box. The object used for the test consists of a heavy structure made of metal that cannot be displaced by the animals.
# After a 7 day drug-free period, the rats were habituated to the test environment and arena prior to the test day. Habituation consisted of placing all rats from one cage together in the empty test arena for one hour for three days including the day before the test day.
# Pairs of rats, weight matched (15-20 g) and unfamiliar to each other, receiving either no treatment (n=90 “conspecific” rats) or different treatments (PCP; n=15 “tested” rats, Vehicle; n=15 “tested” rats, or PCP+drug; n=60 “tested” rats) were placed in the test arena together for 10 minutes and behavior assessed as described below.
# An inanimate object such as an unopened drink can was also placed in the centre of the arena to measure any differences in interaction of the test animal with an unfamiliar animal as opposed to an unfamiliar object. After each 10-minute trial, the object and arena were cleaned with 10% alcohol in an attempt to remove traces of any olfactory cues. All testing was carried out under standard room illumination levels (70 cd/m^2).
# Behaviour in both trials was recorded on video for subsequent blind scoring. A behavioural scoring software program (Hindsight, Scientific programming services) was used to score the following parameters:
# Investigative sniffing behaviour: sniffing the conspecific's snout or parts of the body including the anogenital region.
# Following: rat moves after the conspecific i.e. a vehicle treated rat of the same species, around the arena.
# Avoidances: actively turning away when approached by the conspecific animal.
# Investigation of object: exploration of object placed in centre of the arena.
# Locomotor activity is recorded by counting the total number of sectors (i.e. lines) crossed by the test rat.
# All data were assessed for normality using D'Agostino and Pearson normality test. […]
# [2] = system: PCP-induced social behaviour deficit in female rats; conditions: background statement; cited from earlier work
# [3] = system: mouse model of seizure; assay: maximal electroshock (MES) test in the mouse; format: in vivo; conditions: 2 mg/kg i.p. 30 minutes before MES; p<0.001
# Experimental: Mice were administered MES (50 mA, rectangular current: 0.6 ms pulse width, 0.4 s duration, 50 Hz) via corneal electrodes connected to a constant current shock generator (Ugo Basile: type 7801). The number of tonic convulsions was recorded.
# Twelve mice were studied per group. The test was performed blind.
# The test substance, CBD-C4, was evaluated at 5 doses (3, 10, 30, 100 and 200 mg/kg), administered i.p. 60 minutes before MES, and compared with a vehicle control group (administered under the same experimental conditions).
# Diazepam (2 mg/kg i.p.), administered i.p. 30 minutes before MES, was used as a reference substance and was compared with a vehicle group (administered i.p. 60 minutes before MES).
# Data was analysed by comparing treated groups with the appropriate vehicle control using Fisher's Exact Probability tests.
# [4] = 0.1 mg/kg i.p., 60 min pre-treatment
# [5] = CBD-C4 3, 10, 30 mg/kg, risperidone 0.1 mg/kg i.p., data not shown
smiles,measurement,setting,value
"c1ccc(C2(N3CCCCC3)CCCCC2)cc1 [PCP, Phencyclidine]",sniffing behaviour (scPCP vs vehicle),"[1]; PCP 2 mg/kg i.p. twice daily 7 days, 7-day wash out, P<0.001",significantly reduced
same,following behaviour (scPCP vs vehicle),"[1]; PCP 2 mg/kg i.p. twice daily 7 days, 7-day wash out, P<0.01",significantly reduced
same,increase in the duration of avoidance activity (scPCP vs vehicle),"[1]; PCP 2 mg/kg i.p. twice daily 7 days, 7-day wash out, P=0.058",just failed to reach statistical significance
O=C1CCc2ccc(OCCCCN3CCN(c4cccc(Cl)c4Cl)CC3)cc2N1 [aripiprazole],attenuation of PCP-induced social behaviour deficit,[2],attenuated
"CN1C(=O)CN=C(c2ccccc2)c2cc(Cl)ccc21 [diazepam, Diazepam, reference compound]","decrease in the number of tonic convulsions, as compared with vehicle controls",[3],−75%
CNCCC(Oc1ccc(C(F)(F)F)cc1)c1ccccc1 (stereo not shown) [fluoxetine],attenuation of PCP-induced social behaviour deficit,[2],not attenuated
O=C(CCCN1CCC(O)(c2ccc(Cl)cc2)CC1)c1ccc(F)cc1 [haloperidol],attenuation of PCP-induced social behaviour deficit,[2],not attenuated
Cc1nc2n(c(=O)c1CCN1CCC(c3noc4cc(F)ccc34)CC1)CCCC2 [risperidone],avoidance behaviour compared to the scPCP-treated group,[1]; [4],significantly decreased
same,following behaviour,[1]; [4],no significant effect
same,sniffing behaviour,[1]; [4],no significant effect
same,line crossings (locomotor activity),[1]; [5],no significant effect
same,object exploration,[1]; [5],no significant effect
O=C1Cc2cc(CCN3CCN(c4nsc5ccccc45)CC3)c(Cl)cc2N1 [ziprasidone],attenuation of PCP-induced social behaviour deficit,[2],attenuated
